6 molecules from PubChem BioAssay AID1259407 (Chemical Carcinogenesis Research Information System (CCRIS), 2018) can be followed below.

The source made the active and inactive calls. No rule for the calls is given here.

The test system of the data set is CCRIS mutagenicity, Ames/micronucleus/aberration tests. Kind of data set: CCRIS mutagenicity studies.
[1] abbreviates: Test System: AMES SALMONELLA TYPHIMURIUM, Strain/Indicator: TA98, Metabolic Activation: NONE, Method: STANDARD PLATE.
Where [2] appears, read: Test System: AMES SALMONELLA TYPHIMURIUM, Strain/Indicator: TA98, Metabolic Activation: RAT, LIVER, S-9, AROCLOR 1254, Method: STANDARD PLATE.
The mark [3] stands for this setting: Test System: AMES SALMONELLA TYPHIMURIUM, Strain/Indicator: TA100, Metabolic Activation: NONE, Method: STANDARD PLATE.
Setting [4] is: Test System: AMES SALMONELLA TYPHIMURIUM, Strain/Indicator: TA1535, Metabolic Activation: NONE, Method: STANDARD PLATE.
The mark [5] stands for this setting: Test System: AMES SALMONELLA TYPHIMURIUM, Strain/Indicator: TA1537, Metabolic Activation: NONE, Method: STANDARD PLATE.

Consider `Nc1cc(Cl)cc(S(=O)(=O)O)c1O`, for which the mutagenic call (Test System: AMES SALMONELLA TYPHIMURIUM, Strain/Indicator: TA97, Metabolic Activation: HAMSTER, LIVER, S-9, AROCLOR 1254 (10 OR 30%), Method: PREINCUBATION) was “inactive; negative”; the mutagenic call (Test System: AMES SALMONELLA TYPHIMURIUM, Strain/Indicator: TA97, Metabolic Activation: NONE, Method: PREINCUBATION) was “inactive; negative”; the mutagenic call (Test System: AMES SALMONELLA TYPHIMURIUM, Strain/Indicator: TA97, Metabolic Activation: RAT, LIVER, S-9, AROCLOR 1254 (10 OR 30%), Method: PREINCUBATION) was “inactive; negative”; the mutagenic call (Test System: AMES SALMONELLA TYPHIMURIUM, Strain/Indicator: TA98, Metabolic Activation: HAMSTER, LIVER, S-9, AROCLOR 1254 (10 OR 30%), Method: PREINCUBATION) was “inactive; negative”; the mutagenic call (Test System: AMES SALMONELLA TYPHIMURIUM, Strain/Indicator: TA98, Metabolic Activation: NONE, Method: PREINCUBATION) was “inactive; negative”; the mutagenic call (Test System: AMES SALMONELLA TYPHIMURIUM, Strain/Indicator: TA98, Metabolic Activation: RAT, LIVER, S-9, AROCLOR 1254 (10 OR 30%), Method: PREINCUBATION) is “inactive; negative”. For the same molecule, the mutagenic call (Test System: AMES SALMONELLA TYPHIMURIUM, Strain/Indicator: TA100, Metabolic Activation: HAMSTER, LIVER, S-9, AROCLOR 1254 (10 OR 30%), Method: PREINCUBATION) was “inactive; negative”; the mutagenic call (Test System: AMES SALMONELLA TYPHIMURIUM, Strain/Indicator: TA100, Metabolic Activation: NONE, Method: PREINCUBATION) was “inactive; negative”; the mutagenic call (Test System: AMES SALMONELLA TYPHIMURIUM, Strain/Indicator: TA100, Metabolic Activation: RAT, LIVER, S-9, AROCLOR 1254 (10 OR 30%), Method: PREINCUBATION) is “inactive; negative”; the mutagenic call (Test System: AMES SALMONELLA TYPHIMURIUM, Strain/Indicator: TA1535, Metabolic Activation: HAMSTER, LIVER, S-9, AROCLOR 1254 (10 OR 30%), Method: PREINCUBATION) was “inactive; negative”; the mutagenic call (Test System: AMES SALMONELLA TYPHIMURIUM, Strain/Indicator: TA1535, Metabolic Activation: NONE, Method: PREINCUBATION) was “inactive; negative”; the mutagenic call (Test System: AMES SALMONELLA TYPHIMURIUM, Strain/Indicator: TA1535, Metabolic Activation: RAT, LIVER, S-9, AROCLOR 1254 (10 OR 30%), Method: PREINCUBATION) was “inactive; negative”.
Turning to `OCCCc1ccccc1`, the mutagenic call by setting is: (Test System: AMES SALMONELLA TYPHIMURIUM, Strain/Indicator: TA98, Metabolic Activation: HAMSTER, LIVER, S-9, AROCLOR 1254, Method: STANDARD PLATE) “inactive; negative”; under setting [1], “inactive; negative”; under setting [2], “inactive; negative”; (Test System: AMES SALMONELLA TYPHIMURIUM, Strain/Indicator: TA100, Metabolic Activation: HAMSTER, LIVER, S-9, AROCLOR 1254, Method: STANDARD PLATE) “inactive; negative”; under setting [3], “inactive; negative”; (Test System: AMES SALMONELLA TYPHIMURIUM, Strain/Indicator: TA100, Metabolic Activation: RAT, LIVER, S-9, AROCLOR 1254, Method: STANDARD PLATE) “inactive; negative”. For the same molecule, the mutagenic call reads like this: (Test System: AMES SALMONELLA TYPHIMURIUM, Strain/Indicator: TA1535, Metabolic Activation: HAMSTER, LIVER, S-9, AROCLOR 1254, Method: STANDARD PLATE) “inactive; negative”; under setting [4], “inactive; negative”; (Test System: AMES SALMONELLA TYPHIMURIUM, Strain/Indicator: TA1535, Metabolic Activation: RAT, LIVER, S-9, AROCLOR 1254, Method: STANDARD PLATE) “inactive; negative”; (Test System: AMES SALMONELLA TYPHIMURIUM, Strain/Indicator: TA1537, Metabolic Activation: HAMSTER, LIVER, S-9, AROCLOR 1254, Method: STANDARD PLATE) “inactive; negative”; under setting [5], “inactive; negative”; (Test System: AMES SALMONELLA TYPHIMURIUM, Strain/Indicator: TA1537, Metabolic Activation: RAT, LIVER, S-9, AROCLOR 1254, Method: STANDARD PLATE) “inactive; negative”. For the same molecule, the mutagenic call reads like this: (Test System: AMES SALMONELLA TYPHIMURIUM, Strain/Indicator: TA1538, Metabolic Activation: HAMSTER, LIVER, S-9, AROCLOR 1254, Method: STANDARD PLATE) “inactive; negative”; (Test System: AMES SALMONELLA TYPHIMURIUM, Strain/Indicator: TA1538, Metabolic Activation: NONE, Method: STANDARD PLATE) “inactive; negative”; (Test System: AMES SALMONELLA TYPHIMURIUM, Strain/Indicator: TA1538, Metabolic Activation: RAT, LIVER, S-9, AROCLOR 1254, Method: STANDARD PLATE) “inactive; negative”; (Test System: MOUSE LYMPHOMA, Strain/Indicator: L5178Y (TK+/TK-), Metabolic Activation: NONE, Method: SUSPENSION/PLATE) “inactive; negative. reevaluation of results: negative”; (Test System: MOUSE LYMPHOMA, Strain/Indicator: L5178Y (TK+/TK-), Metabolic Activation: RAT, LIVER, S-9, AROCLOR 1254, Method: SUSPENSION/PLATE) “inactive; negative. reevaluation of results: negative”.
As for `O[C@@H]1C=Cc2c(cc3ccc4cccc5ccc2c3c45)[C@@H]1O`, the mutagenic call under setting [2] was “active; positive”.
Consider `CC(C)=CC1C(C(=O)OC(C#N)c2cccc(Oc3ccccc3)c2)C1(C)C` (stereo unspecified), for which the mutagenic call (Test System: Ames Salmonella typhimurium, Strain/Indicator: TA98, Metabolic Activation: None, Method: Preincubation) is “inactive; negative”; the mutagenic call (Test System: Ames Salmonella typhimurium, Strain/Indicator: TA98, Metabolic Activation: Rat, liver, S-9, Method: Preincubation) is “inactive; negative”; the mutagenic call (Test System: Ames Salmonella typhimurium, Strain/Indicator: TA100, Metabolic Activation: None, Method: Preincubation) is “inactive; negative”; the mutagenic call (Test System: Ames Salmonella typhimurium, Strain/Indicator: TA100, Metabolic Activation: Rat, liver, S-9, Method: Preincubation) was “inactive; negative”; the mutagenic call (Test System: Ames Salmonella typhimurium, Strain/Indicator: TA1535, Metabolic Activation: None, Method: Preincubation) was “inactive; negative”; the mutagenic call (Test System: Ames Salmonella typhimurium, Strain/Indicator: TA1535, Metabolic Activation: Rat, liver, S-9, Method: Preincubation) is “inactive; negative”. In addition, the mutagenic call reads like this: (Test System: Ames Salmonella typhimurium, Strain/Indicator: TA1537, Metabolic Activation: None, Method: Preincubation) “inactive; negative”; (Test System: Ames Salmonella typhimurium, Strain/Indicator: TA1537, Metabolic Activation: Rat, liver, S-9, Method: Preincubation) “inactive; negative”; (Test System: Ames Salmonella typhimurium, Strain/Indicator: TA1538, Metabolic Activation: None, Method: Preincubation) “inactive; negative”; (Test System: Ames Salmonella typhimurium, Strain/Indicator: TA1538, Metabolic Activation: Rat, liver, S-9, Method: Preincubation) “inactive; negative”; (Test System: E. coli, Strain/Indicator: WP-2 uvrA, Metabolic Activation: None, Method: Preincubation) “inactive; negative”; (Test System: E. coli, Strain/Indicator: WP-2 uvrA, Metabolic Activation: Rat, liver, S-9, Method: Preincubation) “inactive; negative”.
Regarding `c1cc(OCC2CO2)ccc1Cc1ccc(OCC2CO2)cc1` (stereo unspecified), the mutagenic call (End Point: In vitro micronucleus, Test System: HepG2 cells, Metabolic Activation: None) is “inactive; negative”.
Regarding `C[n+]1c2n(c(=O)c3ccccc31)CCc1c-2[nH]c2ccccc12`, the mutagenic call was “inactive; negative” under setting [1]; “inactive; negative” (Test System: AMES SALMONELLA TYPHIMURIUM, Strain/Indicator: TA98, Metabolic Activation: RAT LIVER S-9, AROCLOR 1254 (10%), Method: STANDARD PLATE); “inactive; negative” under setting [3]; “inactive; negative” (Test System: AMES SALMONELLA TYPHIMURIUM, Strain/Indicator: TA100, Metabolic Activation: RAT LIVER S-9, AROCLOR 1254 (10%), Method: STANDARD PLATE); “inactive; negative” under setting [4]; “inactive; negative” (Test System: AMES SALMONELLA TYPHIMURIUM, Strain/Indicator: TA1535, Metabolic Activation: RAT LIVER S-9, AROCLOR 1254 (10%), Method: STANDARD PLATE). Further, the mutagenic call under setting [5] is “inactive; negative” and the mutagenic call (Test System: AMES SALMONELLA TYPHIMURIUM, Strain/Indicator: TA1537, Metabolic Activation: RAT LIVER S-9, AROCLOR 1254 (10%), Method: STANDARD PLATE) is “inactive; negative”.
